Source: patent US20240180793A1, “CORE STICK-TYPE OIL DISPERSION SOLID COSMETIC COMPOSITION HAVING IMPROVED SPREADABILITY” (COSMAX, INC., priority 2021, published 2024)
Converted amounts (≈) assume the structure as drawn.

Molecular target: mushroom tyrosinase
Assay: Mushroom tyrosinase inhibition assay (whitening effect)
Format: biochemical
Conditions: mushroom tyrosinase 1000 units/mL, L-tyrosine, pH 6.5, 25° C. for 30 minutes, absorbance at 490 nm
Method: Then, the absorbance was recorded at 490 nm by a microplate reader to determine the amount of dopachrome generated. […] The expression of the percentage of tyrosinase activity inhibition is as follows.
Tyrosinase activity inhibitory effect (%)=(1−(A−B)/C)×100 [Equation] • A: Absorbance of sample • B: Absorbance of color control • C: Absorbance of control

IC50 (tyrosinase activity inhibition): 630.1 µg/mL (≈ 2310 µM)
Compound: OC[C@H]1O[C@@H](Oc2ccc(O)cc2)[C@H](O)[C@@H](O)[C@@H]1O [Arbutin]
